Here are results for 1 compound from US9289425B2, “Intranasal naloxone compositions and methods of making and using same” (priority 2013, dated 2016).

A short description of series [1]: Physicochemical properties of naloxone stated in the description. To be noted: pH of about 5.5 to 6.5. The source says:
Specifically, naloxone is known to have a pKa of about 8. For nasal formulations, wherein transmucosal delivery is desired, it is generally considered advantageous, if not necessary, to ensure that an active agent is primarily in an un-ionized state, as unionized species pass through membranes more easily than ionized species. […] The nasal mucosal is at a pH of about 5.5 to 6.5, a pH at which Applicant has found naloxone is unstable.
Naloxone prevents or reverses the effects of opioids including respiratory depression, sedation and hypotension. Also, it can reverse the psychotomimetic and dysphoric effects of agonist-antagonists such as pentazocine. […] In the presence of physical dependence on opioids, naloxone will produce withdrawal symptoms. However, in the presence of opioid dependence, withdrawal symptoms will appear within minutes of naloxone administration and will subside in about 2 hours. The severity and duration of the withdrawal syndrome are related to the dose and route of administration of naloxone and to the degree and type of dependence.

The conditions of series [2]: cited from earlier work.

Structures can show the parent of a compound that is named as a salt. Where two headings read alike, the source gives them in different places.

`C=CCN1CC[C@]23c4c5ccc(O)c4O[C@H]2C(=O)CC[C@@]3(O)[C@H]1C5` [naloxone, 17-allyl-4,5α-epoxy, 3-14-dihydroxymorphinan-6-one hydrochloride]: the “stability versus pH” value in series [1] is listed as “unstable”. Besides, the pKa result in series [2] is “about 8”. For the same compound, the solubility entry was “slightly soluble” in series [2] (in alcohol); “practically insoluble” in series [2] (in ether and in chloroform); “soluble” in series [2] (in water, in dilute acids, and in strong alkali).
